Results published in article PMC10052025 (Pharmaceutics, 2023).
Values after ≈ are worked out from the molar mass of the structure shown. Read-outs that look alike come from different tables or passages of the source.

What was measured:
OATP1B1/3 = conditions: humans, cited from earlier work
OATP1B1 [1] = target: T1, OATP1B1 (Homo sapiens, UniProt Q9Y6L6); parameters: FLAG; expressed in transfected cells; conditions: cited from earlier work
T1 sequence (Q9Y6L6 1-691): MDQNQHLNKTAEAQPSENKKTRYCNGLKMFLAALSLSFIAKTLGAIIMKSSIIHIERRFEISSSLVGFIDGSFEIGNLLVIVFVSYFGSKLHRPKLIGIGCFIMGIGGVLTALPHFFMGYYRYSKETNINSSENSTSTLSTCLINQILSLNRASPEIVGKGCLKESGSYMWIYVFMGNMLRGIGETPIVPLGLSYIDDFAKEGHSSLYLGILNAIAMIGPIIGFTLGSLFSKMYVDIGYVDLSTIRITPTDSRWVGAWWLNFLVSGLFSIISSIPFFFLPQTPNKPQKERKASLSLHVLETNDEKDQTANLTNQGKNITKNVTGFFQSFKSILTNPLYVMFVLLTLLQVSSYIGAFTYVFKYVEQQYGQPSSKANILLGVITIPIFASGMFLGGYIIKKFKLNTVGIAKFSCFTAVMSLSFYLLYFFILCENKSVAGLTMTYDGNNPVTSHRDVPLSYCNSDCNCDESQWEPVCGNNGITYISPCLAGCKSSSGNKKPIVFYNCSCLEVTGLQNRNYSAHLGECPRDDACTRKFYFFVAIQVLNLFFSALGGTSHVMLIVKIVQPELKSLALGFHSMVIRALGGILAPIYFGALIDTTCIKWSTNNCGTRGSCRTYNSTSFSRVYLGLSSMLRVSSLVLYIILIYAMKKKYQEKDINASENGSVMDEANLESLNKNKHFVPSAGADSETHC

OATP1B1 [2] = target: T1, OATP1B1; assay: Prediction of OATP1B1-mediated DDI using the static R-value model; parameters: FLAG; expressed in transfected cells; conditions: predicted AUC ratio
Procedure: (§1) The R-value, which represents the predicted AUC ratio of the substrate drug in the presence versus absence of an inhibitor drug, was calculated based on Equation (2), following the US-FDA final guidance with the parameters summarized in Table 1.
(§2) The fa is the fraction absorbed. […] Fg is the fraction that escaped gut metabolism (Fg). The ka is the absorption rate constant. […] Qh is the hepatic blood flow rate (1500 mL/min). RB is the blood-to-plasma concentration ratio. […] (3) Iin,max=Imax+faFg×ka×Dose/Qh×RB

OATP1B1 [3] = target: T1, OATP1B1; assay: cell-based; conditions: for OATP1B1-mediated transport after preincubation: washed, substrate without inhibitor; for IC50: [3H]-E217βG 1 µM, 2 min
Procedure: (§3) HEK293 stable cell lines expressing FLAG-tagged OATP1B1 (HEK293-FLAG-OATP1B1) or FLAG-tagged OATP1B3 (HEK293-FLAG-OATP1B3) have been published previously. Both HEK293 stable cell lines were cultured in DMEM culture media supplemented with 9% FBS (abbreviated as FBS–DMEM), antibiotic antimycotic, and 600 µg/mL G418 as published previously.
(§4) HEK293-FLAG-OATP1B1 and HEK293-FLAG-OATP1B3 cells (less than 40 passages) were seeded in poly-L-lysine coated 24-well plates at a density of 1.5 × 10^5 cells per well and allowed to grow for 48 h until confluent before the transport studies. [^3H]-E217βG (1 µM, 2 min) and [^3H]-CCK-8 (1 µM, 3 min) were used as substrates for OATP1B1 and OATP1B3 in HEK293-FLAG-OATP1B1 and HEK293-FLAG-OATP1B3 cells, respectively. […] After preincubation, cells were washed three times with HBSS buffer and incubated with HBSS buffer containing substrate, in the […] of vehicle control or inhibitor. […] At the end of substrate incubation, cells were washed three times with ice-cold HBSS buffer and lysed in PBS containing 0.5% Triton X-100. Liquid scintillation counting was determined and normalized to the protein concentration, after correcting for any nonspecific binding in the poly-L-lysine-coated blank plates, as published previously.
(§5) (1) E=Bottom+Top−Bottom/(1+C/IC50) where E is the remaining substrate transport at a given inhibitor concentration (C).

[4] = human plasma; cited from earlier work
OATP1B3 [5] = target: T2, OATP1B3 (Homo sapiens, UniProt Q9NPD5); assay: Prediction of OATP1B3-mediated DDI using the static R-value model; parameters: FLAG; expressed in transfected cells; conditions: predicted AUC ratio
T2 sequence (Q9NPD5 1-702): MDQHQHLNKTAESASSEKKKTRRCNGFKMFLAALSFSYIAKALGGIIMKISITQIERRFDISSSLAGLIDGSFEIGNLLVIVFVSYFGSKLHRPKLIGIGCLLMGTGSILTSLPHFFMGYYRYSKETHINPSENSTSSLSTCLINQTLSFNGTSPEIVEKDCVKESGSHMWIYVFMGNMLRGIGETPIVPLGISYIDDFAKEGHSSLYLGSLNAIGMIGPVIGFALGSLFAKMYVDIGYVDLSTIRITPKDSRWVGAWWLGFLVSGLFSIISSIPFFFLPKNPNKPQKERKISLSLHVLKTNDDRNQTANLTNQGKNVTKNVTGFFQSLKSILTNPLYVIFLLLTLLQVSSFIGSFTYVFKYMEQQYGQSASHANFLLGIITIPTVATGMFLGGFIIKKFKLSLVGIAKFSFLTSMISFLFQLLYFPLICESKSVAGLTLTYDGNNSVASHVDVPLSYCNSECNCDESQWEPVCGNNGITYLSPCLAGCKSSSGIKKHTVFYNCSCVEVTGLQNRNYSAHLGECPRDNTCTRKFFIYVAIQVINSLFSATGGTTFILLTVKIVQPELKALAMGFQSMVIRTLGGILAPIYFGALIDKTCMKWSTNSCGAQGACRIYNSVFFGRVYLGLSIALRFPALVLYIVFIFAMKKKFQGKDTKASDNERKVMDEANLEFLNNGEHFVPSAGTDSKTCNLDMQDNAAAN
Procedure: as §1, §2

[6] = Maximum aqueous soluble concentration; format: physicochemical; conditions: aqueous solution (not further specified)
OATP1B3 [7] = target: T2, OATP1B3
Procedure: as §3, §4, §5

[8] = Nicardipine pharmacokinetic parameters for R-value determination; conditions: Estimated based on Equation (3)
Procedure: The fa is the fraction absorbed. […] Fg is the fraction that escaped gut metabolism (Fg). The ka is the absorption rate constant. […] Qh is the hepatic blood flow rate (1500 mL/min) [32]. RB is the blood-to-plasma concentration ratio. […] RB of 0.63 was used as a worst-case scenario.

[9] = steady state, read-out: Cmax, plasma, cited from earlier work
[10] = system: OATP1B1 c. 521CC genotype; conditions: subjects with OATP1B1 c. 521CC genotype; cited from earlier work
[11] = from co-incubation IC50, FBS-DMEM
[12] = from pre + co-incubation IC50, FBS-DMEM
[13] = from pre + co-incubation IC50, HBSS

## COCC(=O)O[C@]1(CCN(C)CCCc2nc3ccccc3[nH]2)CCc2cc(F)ccc2[C@@H]1C(C)C [Mibefradil, mibefradil]
OATP1B1/3; AUC of atorvastatin on coadministration, ref 10 in text, ref 8 in Table 3
  AUC Ratio: 4.43
OATP1B1/3; AUC of pravastatin on coadministration of mibefradil
  AUC Ratio: 1.32

## COC(=O)C1=C(C)NC(C)=C(C(=O)OCC(C)C)C1c1ccccc1[N+](=O)[O-] (stereo not drawn) [Nisoldipine, nisoldipine]
OATP1B1/3; AUC of telmisartan on coadministration
  AUC Ratio: 2.32

## CCOC(=O)C1=C(COCCN)NC(C)=C(C(=O)OC)C1c1ccccc1Cl (stereo not drawn) [amlodipine]
OATP1B1 [1]; IC50 determined without inhibitor-preincubation step
  predicted DDI potential based on IC50 values against OATP1B1: no DDI potential

## COC(=O)C1=C(C)NC(C)=C(C(=O)OCCN(C)Cc2ccccc2)C1c1cccc([N+](=O)[O-])c1 (stereo not drawn) [nicardipine]
OATP1B1 [2]; [11]
  R (20 mg): 1.1
  R (30 mg): 1.1
  R (40 mg): 1.2
OATP1B1 [2]; from co-incubation IC50, HBSS
  R (20 mg): 1.1
  R (30 mg): 1.1
  R (40 mg): 1.1
OATP1B1 [2]; [12]
  R (20 mg): 1.1
  R (30 mg): 1.2
  R (40 mg): 1.3
OATP1B1 [2]; [13]
  R (20 mg): 1.2
  R (30 mg): 1.3
  R (40 mg): 1.4
OATP1B1 [3]; 0.5 µM, 10 min preincubation in HBSS buffer
  effect of preincubation on OATP1B1-mediated transport: no effect
OATP1B1 [3]; 0.5 µM, 30 min preincubation in HBSS buffer
  OATP1B1-mediated transport after preincubation: 0.78 ± 0.04 fold of the control
OATP1B1 [3]; 0.5 µM, 1 h preincubation in HBSS buffer
  OATP1B1-mediated transport after preincubation: 0.82 ± 0.04 fold of the control
OATP1B1 [3]; 0.5 µM, any preincubation duration (10 min–1 h) in FBS-containing medium
  effect of preincubation on OATP1B1-mediated transport: no effect
OATP1B1 [3]; 2 and 4 µM, HBSS buffer and FBS-containing medium, all preincubation time points
  effect of preincubation on OATP1B1-mediated transport: significantly reduced
OATP1B1 [3]; IC50, Co-incubation only (no preincubation), FBS-DMEM row
  IC50: 2800 ± 2440 nM
OATP1B1 [3]; IC50, Co-incubation only (no preincubation), HBSS row
  IC50: 3550 ± 2460 nM
OATP1B1 [3]; IC50, Pre + co-incubation, 30 min preincubation in FBS-DMEM (9% FBS)
  IC50: 1570 ± 1400 nM
OATP1B1 [3]; IC50, Pre + co-incubation, 30 min preincubation in protein-free HBSS buffer
  IC50: 980 ± 260 nM
[4]
  fu (Fraction unbound in the plasma): 0.05 [29]
OATP1B3 [5]; [11]
  R (20 mg): 1.0
OATP1B3 [5]; from co-incubation IC50, HBSS
  R (20 mg): 1.0
  R (30 mg): 1.0
  R (40 mg): 1.0
OATP1B3 [5]; [13]
  R (20 mg): 1.1
  R (30 mg): 1.2
  R (40 mg): 1.3
[6]
  solubility: 4 µM (≈ 1.92 µg/mL)
OATP1B1 [1]; 20 µM
  inhibition of OATP1B1-mediated transport: 65%
OATP1B3 [7]; 0.5 µM, any treatment condition
  effect of preincubation on OATP1B3-mediated transport: did not significantly affect
OATP1B3 [7]; FBS-containing medium, 4 µM for 30 min and 2 or 4 µM for 1 h
  effect of preincubation on OATP1B3-mediated transport: small, yet significant, reductions
[8]
  Iin, max (estimated total maximum plasma concentration at the inlet to the liver): 8.46 µM
[9]; 20 mg 3 times a day
  Cmax: 70 nM
[9]; 30 mg 3 times a day
  Cmax: 170 nM
[9]; 40 mg 3 times a day
  Cmax: 260 nM

## CC[C@H](C)C(=O)O[C@H]1C[C@H](O)C=C2C=C[C@H](C)[C@H](CC[C@@H](O)C[C@@H](O)CC(=O)O)[C@H]21 [pravastatin]
[10]
  increased AUC, fold of the reference: 1.9 fold
